Results on ten molecules are retold here after US4530903A, “L-2-hydroxy-4-methylpentanoic acid-dehydrogenase, process for obtaining it and its use” (Degussa Aktiengelleschaft, priority 1982, dated 1985).

For data set [1], the target named is T1, L-2-hydroxy-4-methylpentanoic acid-dehydrogenase (Weissella confusa, UniProt P14295).
T1 construct: the cells harvesting by centrifugation, solubilizing the product in a suspension buffered to pH 7 and obtaining the enzyme from the extract; made in house; host or cells: Lactobacillus confusus DSM 20196 (natural producer, not recombinant)
T1 sequence (P14295 1-310): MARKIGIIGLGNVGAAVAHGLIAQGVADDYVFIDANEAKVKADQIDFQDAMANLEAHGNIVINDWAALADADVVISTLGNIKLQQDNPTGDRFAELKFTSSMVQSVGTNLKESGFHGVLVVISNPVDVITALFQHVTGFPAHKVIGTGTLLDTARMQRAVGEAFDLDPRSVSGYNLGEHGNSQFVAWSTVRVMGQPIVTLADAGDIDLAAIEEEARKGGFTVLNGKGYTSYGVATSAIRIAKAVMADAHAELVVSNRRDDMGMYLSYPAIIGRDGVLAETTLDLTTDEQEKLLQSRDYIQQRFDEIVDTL
Put plainly: Reduction of 2-ketocarboxylic acids to L-2-hydroxycarboxylic acids (Example 2), NADH decrease at 340 nm. It counts as biochemical, Lactobacillus confusus. The following applies: same enzyme solution. The protocol:
(§1) In each case, there was again measured the maximal beginning reaction velocity Vmax and the KM value. […] In a corresponding manner there was determined the enzyme activity against other 2-ketocarboxylic acids. The keto acid concentration in each case was varied in the range of 0.01 to a maximum of 10 millimoles. The maximal initial reaction velocity was ascertained through the increase of the substrate concentration. The Michaelis constant (KM value) corresponds to the substrate concentration in moles/liter at which the reaction velocity V is half the maximum initial reaction velocity. The kinetic constants Vmax and KM were ascertained through nonlinear regression of the Michaelis-[…] equation and are summarized in following Table 4. The relative activities (U/ml) stated in Table 5 were measured at substrate final concentrations of 0.1 millimoles, 1 millimole, and 10 millimoles. In all cases, there was employed the same enzyme solution. At 10 millimoles in all substrates there was already noticeable a substrate excess inhibition.

Data set [2] has as its target T1, L-2-hydroxy-4-methylpentanoic acid-dehydrogenase. Put plainly: Dehydrogenation of 2-hydroxycarboxylic acids to 2-ketocarboxylic acids (Example 1), NADH formation at 340 nm. It counts as biochemical, Lactobacillus confusus. To be noted: same enzyme solution. The procedure: (§2) In each case, there was measured the maximal initial reaction velocity Vmax and the KM value. […] In a corresponding manner, the enzymatic activity against other 2-hydroxycarboxylic acids was determined. The concentration of the corresponding 2-hydroxycarboxylic acids in the test was varied between 0.2 and a maximum of 100 millimoles. By increasing the substrate concentration, the maximum beginning reaction velocity Vmax was ascertained. The Michaelis constant (KM value) corresponds to the substrate concentration in moles/liter, at which the reaction velocity V amounts to half the maximum initial reaction velocity. The kinetic constants Vmax and KM were ascertained through non-linear regression of the Michaelis-[…] and are collected in Table 2. […] The relative activities (U/ml) set forth in Table 3 were measured at substrate-final concentrations of 1 millimole, 10 millimoles, and 100 millimoles. In all cases, there was employed the same enzyme solution.

Substrate in data set [3]: NC(=O)C1=CN([C@@H]2O[C@H](COP(=O)(O)OP(=O)(O)OC[C@H]3O[C@@H](n4cnc5c(N)ncnc54)[C@H](O)[C@@H]3O)[C@@H](O)[C@H]2O)C=CC1
The data set is described as follows: purified protein, by the assay type. The following applies: other: pH 7.0, 0.79 millimole 2-keto-4-methylpentanoic acid, NADH 0.01 to 0.33 millimoles.

Substrate in data set [4]: CC(C)CC(=O)C(=O)O
The data set is described as follows: purified protein, by the assay type. It counts as biochemical, Lactobacillus confusus. To be noted: other: reduction, pH 7.0, 0.235 millimoles NADH. The procedure:
as §1

Substrate in data set [5]: CSCCC(=O)C(=O)O
The data set is described as follows: purified protein, by the assay type. Format: biochemical, Lactobacillus confusus. The following applies: other: reduction, pH 7.0, 0.235 millimoles NADH. The protocol:
as §1

Substrate in data set [6]: CCCC(=O)C(=O)O
Put plainly: purified protein, by the assay type. Format: biochemical, Lactobacillus confusus. The following applies: other: reduction, pH 7.0, 0.235 millimoles NADH. The procedure:
as §1

Substrate in data set [7]: CCCCC(=O)C(=O)O
Put plainly: purified protein, by the assay type. It counts as biochemical, Lactobacillus confusus. The following applies: other: reduction, pH 7.0, 0.235 millimoles NADH. The procedure:
as §1

Substrate in data set [8]: NC(=O)c1ccc[n+]([C@@H]2O[C@H](COP(=O)([O-])OP(=O)(O)OC[C@H]3O[C@@H](n4cnc5c(N)ncnc54)[C@H](O)[C@@H]3O)[C@@H](O)[C@H]2O)c1
The data set is described as follows: Dependency of the dehydrogenation reaction velocity on the NAD+ concentration. It counts as biochemical, Lactobacillus confusus. To be noted: other: pH 8.0, 6.3 millimoles L-2-hydroxy-4-methylpentanoic acid, NAD+ 0.05 to 7.0 millimoles. An excerpt: The dependency of the reaction velocity on the NAD^+ concentration was ascertained in a test mixture which contained 0.1 molar phosphate buffer for pH 8.0, 6.3 millimoles of L-2-hydroxy-4-methylpentanoic acid and limiting amounts of enzyme. The NAD^+ concentration was varied in the range of 0.05 to 7.0 millimoles.
The KM value for NAD^+ was ascertained by non-linear regression of the Michaelis-Menten equation and was 3.3×10^-4 moles.

Substrate in data set [9]: CCCC(O)C(=O)O
Put plainly: purified protein, by the assay type. Format: biochemical, Lactobacillus confusus. To be noted: other: dehydrogenation, pH 8.0, 3 mmoles NAD+, with the enantiomer mixture based on the total concentration. The protocol: as §2

Substrate in data set [10]: CC(C)CC(O)C(=O)O
The data set is described as follows: purified protein, by the assay type. It counts as biochemical, Lactobacillus confusus. To be noted: other: dehydrogenation, pH 8.0, 3 mmoles NAD+, with the enantiomer mixture based on the total concentration. The procedure:
as §2

Substrate in data set [11]: CC(C)C[C@H](O)C(=O)O
The data set is described as follows: purified protein, by the assay type. To be noted: other: dehydrogenation, pH 8.0, 3 mmoles NAD+, with the enantiomer mixture based on the total concentration. Format: biochemical, Lactobacillus confusus. The protocol:
as §2

Substrate in data set [12]: CCCCC(O)C(=O)O
Put plainly: purified protein, by the assay type. It counts as biochemical, Lactobacillus confusus. To be noted: other: dehydrogenation, pH 8.0, 3 mmoles NAD+, with the enantiomer mixture based on the total concentration. The procedure: as §2

Substrate in data set [13]: CSCCC(O)C(=O)O
The data set is described as follows: purified protein, by the assay type. It counts as biochemical, Lactobacillus confusus. To be noted: other: dehydrogenation, pH 8.0, 3 mmoles NAD+, with the enantiomer mixture based on the total concentration. The procedure: as §2

Where [14] appears, read: test concentration 0.1 mM substrate.
[15] abbreviates: test concentration 1 mM substrate.
Where [16] appears, read: test concentration 10 mM substrate.
Where [17] appears, read: test concentration 100 mM substrate.

Consider `CCCCC(=O)C(=O)O` [2-Ketohexanoic acid], for which the values for the relative activity in [1] (setting [14]), in [1] (setting [15]) and in data set [1] (setting [16]) were 123 U/ml, 301 U/ml and 103 U/ml, respectively.
For `CCCC(=O)C(=O)O` [2-Ketopentanoic acid], in that order: 149 U/ml, 344 U/ml and 161 U/ml.
`CCCC(O)C(=O)O` (racemic) [DL-2-Hydroxypentanoic acid]: the relative activity was 6.2 U/ml in [2] (setting [15]), 31.2 U/ml in data set [2] (setting [16]) and 5.3 U/ml in data set [2] (setting [17]).
In the case of `CSCCC(=O)C(=O)O` [2-Keto-4-(methylmercapto)-butyric acid], the results for the relative activity in [1] (setting [14]), in [1] (setting [15]) and in data set [1] (setting [16]) were 33 U/ml, 93 U/ml and 53 U/ml, respectively.
Turning to `CC(C)C[C@H](O)C(=O)O` [L-2-Hydroxy-4-methylpentanoic acid], the relative activity in [2] (setting [15]) stood at 28.4 U/ml; in data set [2] (setting [16]) it was 49.7 U/ml; in data set [2] (setting [17]), 5.0 U/ml.
The matching figures for `CCCCC(O)C(=O)O` (racemic) [DL-2-Hydroxyhexanoic acid]: 8.4 U/ml, 39.5 U/ml and 3.9 U/ml.
`CC(C)CC(=O)C(=O)O` [2-Keto-4-methylpentanoic acid]: the relative activity in data set [1] (setting [14]) worked out at 133 U/ml; in data set [1] (setting [15]), 259 U/ml; in data set [1] (setting [16]) it was 144 U/ml.
As for `CSCCC(O)C(=O)O` (racemic) [DL-2-Hydroxy-4-(methylmercapto)-butyric acid], the relative activity was determined as 0.46 U/ml in [2] (setting [15]), 2.7 U/ml in [2] (setting [16]) and 5.1 U/ml in data set [2] (setting [17]).
With `CC(C)CC(O)C(=O)O` (racemic) [DL-2-Hydroxy-4-methylpentanoic acid], the relative activity is reported as 16.6 U/ml in data set [2] (setting [15]), 39.8 U/ml in data set [2] (setting [16]) and 2.9 U/ml in [2] (setting [17]).

B1: L-2-hydroxy-4-methylpentanoic acid-dehydrogenase (Weissella confusa) (protein)
chain: T1 sequence (P14295 1-310)
notes: the cells harvesting by centrifugation, solubilizing the product in a suspension buffered to pH 7 and obtaining the enzyme from the extract; made in house; host or cells: Lactobacillus confusus DSM 20196 (natural producer, not recombinant)
One may read the Vmax as the top rate of the reaction or transport when substrate is in excess. For B1, the Km in data set [3] came out at 3.3e-05 mol; in data set [4] it was 70 µM; in [5], 210 µM; in data set [6], 250 µM; in [7], 120 µM; in [8], 330 µM. Also, the Km in data set [9] worked out at 3550 µM; in data set [10], 1400 µM; in data set [11], 620 µM; in [12], 4500 µM; in data set [13], 11000 µM. The Vmax in data set [4] worked out at 64 µmol/min/mg; in [5], 28 µmol/min/mg; in [10], 9.6 µmol/min/mg; in data set [11], 9.8 µmol/min/mg; in [13], 1.2 µmol/min/mg.
